{"source": "patent US5462927A", "about": "“Peptides aiding nerve regeneration” (The Administrators of the Tulane Educational Fund, priority 1992, dated 1995)", "key": {"crushed peroneal nerve": {"tested_on": "crushed peroneal nerve", "experiment": "Walking test (locomotor pattern, toespread) after peroneal nerve crush", "format": "in vivo, rat", "method": "The effect of BIM-22015 regeneration of the crushed peroneal nerve in the rat was assessed using both morphological and physiological studies, as follows. Both locomotor pattern and endplate morphology during the early stages of crushed nerve regeneration were assessed after treatment with BIM-220150 Adult Sprague-Dawley male rats (Taconic Farms) were maintained at 25° C. on a 12 hour light and a 12 hour dark cycle and were supplied with standard rat chow and water ad lib. All surgery was performed under anesthesia with 8% chlorohydrate (0.6 ml/100 g I.P.). Denervation was accomplished using a #5 Dumont forceps with a uniformly filed tip to crush the peroneal nerve. This crush produced a 1 mm wide lesion just proximal to the EDL (extention digitarum longus) muscle. The wound was closed with surgical staples. Following surgery, the animal was immediately administered saline or BIM-22015 in one of the following dosages: (1) 0.9% saline, (2) 10.0 ug BIM-22015, (3) 5.0 ug BIM-22015, (3) 1.0 ug BIM-22015, or (4) 0.1 ug BIM-22015 (per animal). Administration continued once every 48 hours for 5 days; on day 5, the rats were killed and tissues taken for morphological analysis. All injections and surgeries occurred between 10:00 and 12:00 noon.\nLocomotor pattern was tested by measuring the walking pattern of the animal. The animal was allowed to walk up a 20° inclined platform. The track was well-lit by fluorescent tubes and a dark box was placed at the end of the track. This dark and light differences was used to entice the animal to walk up the track. […] The distance between the first and fifth digit was determined using a Manostat mechanical caliper (type 6911) with accuracy of ±0.005 mm0 The contralateral foot was used as a control to negate the size differences in individual animals. The Student T test was used to determine the statistical differences, and data were expressed as means of the six sharpest toespreads and the standard error of the mean (using 95% confidence formula), standard deviation, and variances."}, "[1]": {"tested_on": "sciatic nerve after transection and end-to-end suture", "experiment": "Morphometry after section and suture of sciatic nerve", "format": "in vivo, rabbit"}, "crushed sciatic nerve": {"tested_on": "crushed sciatic nerve", "experiment": "Sensorimotor function test (sciatic nerve regeneration assay, foot-flick response to thermal pain)", "format": "in vivo, rat", "conditions": "s.c. every 24 hr for approximately 20-25 days; head prints only 'μG/24 HRS'; vs 0.9% NaCl control", "method": "Female, Sprague-Dawley rats (Charles River Breeding Labs) were used at an age of 7-8 weeks (120-140 g). Under ether anesthesia, the right sciatic nerve was carefully exposed and crushed with constant pressure, hemostatic forceps for 30 sec prior to closure and suturing of the incision. After surgery, the animals were randomly assigned to treatment groups of 10. The test peptides were administered s.c. in 0.9% NaCl in a vol of 0.1 ml. NaCl (0.9%) served as the control. Injections were started immediately after surgery and given every 24 hr thereafter for approximately 20-25 days. The criterion of sciatic nerve regeneration was based on the recovery of the foot-flick response to thermal pain. Beginning 48 hr after surgery, the rats were tested five days a week for the ability to withdraw, from a heat source, the paw innervated by the crushed nerve. All sensorimotor testing was performed between 1:00 and 3:00 p.m. Specifically, the rat was immobilized by wrapping in a towel, and the sole of the lesioned limb was placed over the aperture of a modified d'Amour apparatus. The time required to withdraw the foot was recorded to the nearest 0.1 of sec using a digital stopwatch. If no response occurred by 5 sec, the test was terminated to avoid tissue damage. The observe measuring the foot-flick response was blind to the treatment group being tested. All animals were acclimatized to the testing procedure prior to surgery. Baseline values were obtained by determining the response time for the unlesioned limb."}, "[2]": {"conditions": "1 cm distal to the transection, 32 days p.op., 1 μg/kg per day s.c."}, "[3]": {"conditions": "Region of the Transection, 32 days p.op., 1 μg/kg per day s.c."}, "[4]": {"conditions": "Region of the Transection, 96 days p.op., 1 μg/kg per day s.c."}}, "note": "Square brackets hold non-standard residues; d marks the D form. Peptide text beside a SMILES is read from it.", "data": [{"smiles": "C[C@@H](N)C(=O)N[C@@H](CCC(N)=O)C(=O)N[C@@H](Cc1ccc(O)cc1)C(=O)N[C@@H](Cc1ccccc1)C(=O)N[C@@H](CCCNC(=N)N)C(=O)N[C@@H](Cc1c[nH]c2ccccc12)C(=O)NCC(N)=O", "note": "[BIM-22015, D--Ala--Gln--Tyr--Phe--Arg--Trp--Gly--NH2] (H-[dA]QYFRWG-NH2)", "values": [{"measurement": "recovery rate of locomotion (walking test)", "setting": "crushed peroneal nerve; 0.1 μg per animal, once every 48 hours, days 3-5 after surgery, not statistically significant", "value": "very consistent upward recovery rate"}, {"measurement": "optimal dosage (walking test)", "setting": "crushed peroneal nerve; dosages 0.1-10.0 ug per animal compared", "value": 0.1, "unit": "µg"}, {"measurement": "recovery rate of locomotion (walking test)", "setting": "crushed peroneal nerve; the other dosages (above 0.1 μg) vs saline control", "value": "outperformed the saline control animal but only by a slight margin"}, {"measurement": "light microscopic evaluation of semi-thin sections, control vs experimental groups", "setting": "[1]; 0.5 μm sections after severance and end-to-end suture", "value": "did not disclose definite differences"}, {"measurement": "growth of the myelin sheath in treated animals vs controls", "setting": "[1]; 1 cm distal of the transection, period from the 32nd to the 96th day", "value": "almost twice as fast"}, {"measurement": "Mean values of axon diameter", "setting": "[1]; [2]", "value": 1.545, "unit": "μm"}, {"measurement": "Mean values of myelin sheath thickness", "setting": "[1]; [2]", "value": 0.310, "unit": "μm"}, {"measurement": "Mean values of axon diameter", "setting": "[1]; 1 cm distal to the transection, 96 days p.op., 1 μg/kg per day s.c.", "value": 2.078, "unit": "μm"}, {"measurement": "Mean values of axon diameter", "setting": "[1]; [3]", "value": 1.888, "unit": "μm"}, {"measurement": "Mean values of myelin sheath thickness", "setting": "[1]; [3]", "value": 0.398, "unit": "μm"}, {"measurement": "Mean values of axon diameter", "setting": "[1]; [4]", "value": 2.335, "unit": "μm"}, {"measurement": "Mean values of myelin sheath thickness", "setting": "[1]; [4]", "value": 0.551, "unit": "μm"}, {"measurement": "Number of myelinated axons/0.004 sq. mm", "setting": "[1]; [4]", "value": "62 /0.004 sq. mm"}, {"measurement": "statistically significant effect on the axon diameter", "setting": "[1]; on the 32nd or on the 96th day p.op.", "value": "could not be demonstrated"}, {"measurement": "% Reduction of Recovery Time", "setting": "crushed sciatic nerve", "value": 28, "unit": "%"}]}]}
